Converted amounts (≈) assume the structure as drawn.
Legend:
Assay type in all cases: functional
Candida albicans = test: Antimicrobial activity against Candida albicans DSM 70014 after 48 hr by two-fold serial broth dilution method; conditions: DSM 70014, 48 h
SF-295 = test: Anticancer activity against Homo sapiens (human) SF295 cells after 48 hr by SRB assay; conditions: SF-295, 48 h; for CC50: read-out: LC50 (the source's name)
NCI-H23 [1] = test: Anticancer activity against Homo sapiens (human) NCI-H23 cells after 48 hr by SRB assay; conditions: NCI-H23, 48 h; for CC50: read-out: LC50 (the source's name)
UO-31 [2] = test: Anticancer activity against Homo sapiens (human) UO31 cells after 48 hr by SRB assay; conditions: UO-31, 48 h
Malme-3M = test: Growth inhibition of Homo sapiens (human) MALME-3M cells at 10 uM after 48 hr by SRB assay; conditions: read-out: GI
LOX IMVI [3] = test: Anticancer activity against Homo sapiens (human) LOXIMVI cells after 48 hr by SRB assay; conditions: for CC50: read-out: LC50 (the source's name)
U-251 = test: Anticancer activity against Homo sapiens (human) U251 cells after 48 hr by SRB assay; conditions: U-251, 48 h; for CC50: read-out: LC50 (the source's name)
SF-268 = test: Anticancer activity against Homo sapiens (human) SF268 cells after 48 hr by SRB assay; conditions: SF-268, 48 h; for CC50: read-out: LC50 (the source's name)
SF-539 [4] = test: Anticancer activity against Homo sapiens (human) SF539 cells after 48 hr by SRB assay; conditions: SF-539, 48 h; for CC50: read-out: LC50 (the source's name)
MDA-MB-435 = test: Growth inhibition of Homo sapiens (human) MDA-MB-435 cells at 10 uM after 48 hr by SRB assay; conditions: MDA-MB-435, 48 h, read-out: GI
UACC-62 = test: Growth inhibition of Homo sapiens (human) UACC62 cells at 10 uM after 48 hr by SRB assay; conditions: UACC-62, 48 h, read-out: GI
SK-MEL-28 = test: Anticancer activity against Homo sapiens (human) SK-MEL-28 cells after 48 hr by SRB assay; conditions: SK-MEL-28, 48 h
ACHN = test: Anticancer activity against Homo sapiens (human) ACHN cells after 48 hr by SRB assay; conditions: for CC50: read-out: LC50 (the source's name)
HCC 2998 = test: Growth inhibition of Homo sapiens (human) HCC2998 cells at 10 uM after 48 hr by SRB assay; conditions: HCC 2998, 48 h, read-out: GI
NCI-H322M = test: Anticancer activity against Homo sapiens (human) NCI-H322M cells after 48 hr by SRB assay; conditions: for CC50: read-out: LC50 (the source's name)
IGROV-1 = test: Growth inhibition of Homo sapiens (human) IGROV1 cells at 10 uM after 48 hr by SRB assay; conditions: IGROV-1, 48 h, read-out: GI
DU-145 = test: Anticancer activity against Homo sapiens (human) DU145 cells after 48 hr by SRB assay; conditions: DU-145, 48 h; for CC50: read-out: LC50 (the source's name)
SF-539 [5] = test: Growth inhibition of Homo sapiens (human) SF539 cells at 10 uM after 48 hr by SRB assay; conditions: SF-539, 48 h, read-out: GI
OVCAR-5 = test: Anticancer activity against Homo sapiens (human) OVCAR5 cells after 48 hr by SRB assay; conditions: OVCAR-5, 48 h; for CC50: read-out: LC50 (the source's name)
HL-60(TB) = test: Anticancer activity against Homo sapiens (human) HL-60(TB) cells after 48 hr by SRB assay; conditions: HL-60, 48 h; for CC50: read-out: LC50 (the source's name)
KM12 = test: Anticancer activity against Homo sapiens (human) KM12 cells after 48 hr by SRB assay; conditions: KM12, 48 h; for CC50: read-out: LC50 (the source's name)
HT-29 = test: Anticancer activity against Homo sapiens (human) HT-29 cells after 48 hr by SRB assay; conditions: HT-29, 48 h; for CC50: read-out: LC50 (the source's name)
OVCAR-3 = test: Anticancer activity against Homo sapiens (human) OVCAR3 cells after 48 hr by SRB assay; conditions: OVCAR-3, 48 h
TK-10 [6] = test: Anticancer activity against Homo sapiens (human) TK10 cells after 48 hr by SRB assay; conditions: TK-10, 48 h; for CC50: read-out: LC50 (the source's name)
NCI-H23 [7] = test: Growth inhibition of Homo sapiens (human) NCI-H23 cells at 10 uM after 48 hr by SRB assay; conditions: NCI-H23, 48 h, read-out: GI
CCRF-CEM = test: Anticancer activity against Homo sapiens (human) CCRF-CEM cells after 48 hr by SRB assay; conditions: for CC50: read-out: LC50 (the source's name)
UO-31 [8] = test: Growth inhibition of Homo sapiens (human) UO31 cells at 10 uM after 48 hr by SRB assay; conditions: UO-31, 48 h, read-out: GI
MCF7 = test: Growth inhibition of Homo sapiens (human) MCF7 cells at 10 uM after 48 hr by SRB assay; conditions: MCF7, 48 h, read-out: GI
PC-3 = test: Growth inhibition of Homo sapiens (human) PC3 cells at 10 uM after 48 hr by SRB assay; conditions: PC-3, 48 h, read-out: GI
SK-OV-3 = test: Growth inhibition of Homo sapiens (human) SKOV3 cells at 10 uM after 48 hr by SRB assay; conditions: SK-OV-3, 48 h, read-out: GI
TK-10 [9] = test: Growth inhibition of Homo sapiens (human) TK10 cells at 10 uM after 48 hr by SRB assay; conditions: TK-10, 48 h, read-out: GI
OVCAR-8 = test: Growth inhibition of Homo sapiens (human) OVCAR8 cells at 10 uM after 48 hr by SRB assay; conditions: OVCAR-8, 48 h, read-out: GI
LOX IMVI [10] = test: Growth inhibition of Homo sapiens (human) LOXIMVI cells at 10 uM after 48 hr by SRB assay; conditions: read-out: GI

## COc1ccc(OC)c(/C=C/c2nnc(S)n2-c2ccc(Cl)cc2)c1
Candida albicans
  MFC: 100 µg/mL (≈ 267 µM)
  MIC: 100 µg/mL (≈ 267 µM)
SF-295
  GI50: 4.16 µM
  TGI: > 100 µM
  CC50: > 100 µM
NCI-H23 [1]
  GI50: 5.88 µM
  TGI: > 100 µM
  CC50: > 100 µM
UO-31 [2]
  GI50: 2.25 µM
  LC50 (50% lethal concentration): > 100 µM
Malme-3M
  inhibition of growth at 10 µM: 70.2%
LOX IMVI [3]
  GI50: 5.02 µM
  TGI: > 100 µM
  CC50: > 100 µM
U-251
  GI50: 6.88 µM
  TGI: > 100 µM
  CC50: > 100 µM
SF-268
  GI50: 17.5 µM
  TGI: > 100 µM
  CC50: > 100 µM
SF-539 [4]
  GI50: 4.05 µM
  TGI: 97.9 µM
  CC50: > 100 µM
MDA-MB-435
  inhibition of growth at 10 µM: 110%
UACC-62
  inhibition of growth at 10 µM: 57.2%
SK-MEL-28
  GI50: 11.1 µM
  LC50 (concentration killing 50% of cells): > 100 µM
  TGI: > 100 µM
ACHN
  GI50: 23.8 µM
  TGI: > 100 µM
  CC50: > 100 µM
HCC 2998
  inhibition of growth at 10 µM: 54.4%
NCI-H322M
  GI50: 26.9 µM
  TGI: > 100 µM
  CC50: > 100 µM
IGROV-1
  inhibition of growth at 10 µM: 59.9%
DU-145
  GI50: 19.1 µM
  TGI: > 100 µM
  CC50: > 100 µM
SF-539 [5]
  inhibition of growth at 10 µM: 60.5%
OVCAR-5
  GI50: 70.3 µM
  TGI: > 100 µM
  CC50: > 100 µM
HL-60(TB)
  GI50: 3.57 µM
  TGI: > 100 µM
  CC50: > 100 µM
KM12
  GI50: 4.02 µM
  TGI: > 100 µM
  CC50: > 100 µM
HT-29
  GI50: 3.67 µM
  TGI: > 100 µM
  CC50: > 100 µM
OVCAR-3
  GI50: 3.34 µM
  LC50: > 100 µM
  TGI: 21.4 µM
TK-10 [6]
  GI50: 25.8 µM
  TGI: > 100 µM
  CC50: > 100 µM
NCI-H23 [7]
  inhibition of growth at 10 µM: 51.3%
CCRF-CEM
  GI50: 4.77 µM
  TGI: > 100 µM
  CC50: > 100 µM
UO-31 [8]
  inhibition of growth at 10 µM: 52.9%
MCF7
  inhibition of growth at 10 µM: 68%
PC-3
  inhibition of growth at 10 µM: 41.4%

## COc1ccc(OC)c(/C=C/c2nnc(Nc3ccc(Cl)cc3)o2)c1
Candida albicans
  MFC: 50 µg/mL (≈ 140 µM)
  MIC: 50 µg/mL (≈ 140 µM)
SF-295
  GI50: 6.15 µM
  TGI: 64.5 µM
  CC50: > 100 µM
NCI-H23 [1]
  GI50: 21.7 µM
  TGI: > 100 µM
  CC50: > 100 µM
SK-OV-3
  inhibition of growth at 10 µM: 67.1%
UO-31 [2]
  GI50: 3.13 µM
  LC50 (50% lethal concentration): 78 µM
  TGI: 12.6 µM
Malme-3M
  inhibition of growth at 10 µM: 58.5%
LOX IMVI [3]
  GI50: 7.91 µM
  TGI: > 100 µM
  CC50: > 100 µM
U-251
  GI50: 3.81 µM
  TGI: 14.3 µM
  CC50: 47.6 µM
SF-268
  GI50: 7.6 µM
  TGI: 37.9 µM
  CC50: > 100 µM
SF-539 [4]
  GI50: 11.8 µM
  TGI: 60.5 µM
  CC50: > 100 µM
SK-MEL-28
  GI50: 26.8 µM
  LC50 (concentration killing 50% of cells): > 100 µM
  TGI: > 100 µM
ACHN
  GI50: 3.29 µM
  TGI: 19.9 µM
  CC50: > 100 µM
HCC 2998
  inhibition of growth at 10 µM: 44.6%
NCI-H322M
  GI50: 30.5 µM
  TGI: > 100 µM
  CC50: > 100 µM
DU-145
  GI50: 11.4 µM
  TGI: 36.9 µM
  CC50: > 100 µM
OVCAR-5
  GI50: 32.5 µM
  TGI: > 100 µM
  CC50: > 100 µM
HL-60(TB)
  GI50: > 100 µM
  TGI: > 100 µM
  CC50: > 100 µM
KM12
  GI50: 17.4 µM
  TGI: > 100 µM
  CC50: > 100 µM
HT-29
  GI50: 9.44 µM
  TGI: 28.3 µM
  CC50: 82.1 µM
OVCAR-3
  GI50: 3.55 µM
  LC50: > 100 µM
  TGI: 15.9 µM
TK-10 [6]
  GI50: 7.4 µM
  TGI: 83.2 µM
  CC50: > 100 µM
TK-10 [9]
  inhibition of growth at 10 µM: 60.9%
CCRF-CEM
  GI50: > 100 µM
  TGI: > 100 µM
  CC50: > 100 µM
UO-31 [8]
  inhibition of growth at 10 µM: 95%
OVCAR-8
  inhibition of growth at 10 µM: 33.3%
LOX IMVI [10]
  inhibition of growth at 10 µM: 32.3%

From ChEMBL document CHEMBL3046389, “Synthesis and biological evaluation of novel hydroquinone dimethyl ethers as potential anticancer and antimicrobial agents” (2013)
